Experimental data: paper PMC7235712, “Biological Activities of Essential Oils from Leaves of Paramignya trimera (Oliv.) Guillaum and Limnocitrus littoralis (Miq.) Swingle” (Antibiotics, 2020)
Converted amounts (≈) assume the structure as drawn.

Tests used:
RSV = assay: Plaque reduction in Vero-76 monolayers, RSV; assay type: cell-based; details: human respiratory syncytial virus, reference compound
in vitro [1] = details: African green monkey (Cercopithecus aethiops)
Sb-1 = assay: microbe, parasite or virus in culture; assay type: cell-based, human enterovirus C (polio virus type-1); details: Enterovirus C, Vero 76, read-out: EC50 Sb-1
CV-B4 = assay: Plaque reduction in Vero-76 monolayers, CV-B4; assay type: cell-based, human enterovirus B (coxsackie virus B4); details: Enterovirus B, CVB4, reference compound
S. aureus = details: β-caryophyllene from Aquilaria crassna essential oil; cited from earlier work
in vitro [2] = details: Syrian hamster (Mesocricetus auratus)
Reo-1 = assay: microbe, parasite or virus in culture; assay type: cell-based, reovirus type-1; details: Reovirus sp., BHK, read-out: EC50 Reo-1
in vitro [3] = details: human
HIV-1IIIB = assay: microbe, parasite or virus in culture; assay type: cell-based, human immunodeficiency virus type-1; details: Human immunodeficiency virus 1, MT4, read-out: EC50 HIV-1IIIB
HSV-1 = assay: Plaque reduction in Vero-76 monolayers, HSV-1; assay type: cell-based, human herpes virus 1; details: Human alphaherpesvirus 1, reference compound
YFV = assay: microbe, parasite or virus in culture; assay type: cell-based; details: Yellow fever virus, BHK, read-out: EC50 YFV
BVDV = assay: microbe, parasite or virus in culture; assay type: cell-based, bovine viral diarrhoea virus; details: Bovine viral diarrhea virus isolates and strains, MDBK, in Bos taurus, read-out: EC50 BVDV
in vitro [4] = details: cattle (Bos taurus)

In the case of `O=c1cnn([C@@H]2O[C@H](CO)[C@@H](O)[C@H]2O)c(=O)[nH]1` [RC4, 6-aza-uridine], the EC50 (RSV) is reported as 2000 ± 200 nM and the CC50 (in vitro [1]) is reported as ≥ 14000 nM.
With `Cc1cc(CCCOc2c(C)cc(-c3noc(C(F)(F)F)n3)cc2C)on1` [RC3, Pleconaril] the EC50 (Sb-1) was 2000 nM, the CC50 (in vitro [1]) was > 100000 nM and the EC50 (CV-B4) was 2000 ± 500 nM.
For `C=C1CC/C=C(\C)CC[C@@H]2[C@@H]1CC2(C)C` [β-caryophyllene], the MIC (S. aureus) is given as 3 ± 0.4 µM (≈ 0.613 µg/mL).
In the case of `C[C@@]1(O)[C@H](O)[C@@H](CO)O[C@H]1n1ccc(N)nc1=O` [RC7, 2′-C-methylcytidine], the CC50 (in vitro [2]) is reported as > 100000 nM and the EC50 (Reo-1) is reported as 17000 nM.
`O=C1Nc2ccc(Cl)cc2[C@@](C#CC2CC2)(C(F)(F)F)O1` [RC1, Efavirenz] showed a CC50 (in vitro [3]) of 40000 nM and an EC50 (HIV-1IIIB) of 3 ± 0.3 nM.
With `COc1c(C)c2c(c(O)c1C/C=C(\C)CCC(=O)O)C(=O)OC2` [RC6, Mycophenolic acid] the CC50 (in vitro [1]) was > 100000 nM.
For `Nc1nc2c(ncn2COCCO)c(=O)[nH]1` [RC5, Acycloguanosine], the CC50 (in vitro [1]) was > 100000 nM and the EC50 (HSV-1) was 3000 ± 100 nM.
Work on `C[C@@]1(O)[C@H](O)[C@@H](CO)O[C@H]1n1cnc2c(=O)[nH]c(N)nc21` [RC2, 2′-C-methylguanosine] yielded an EC50 (YFV) of 1400 ± 200 nM, a CC50 (in vitro [2]) of 80000 nM and an EC50 (BVDV) of 1700 ± 300 nM. The CC50 (in vitro [4]) was > 100000 nM.
